Source: patent publication US5821244A, “Condensed nitrogen heterocycles and their use as pesticides, fungicides and antimycotics” (Hoechst Schering AgrEvo GmbH, priority 1993, dated 1998)

Tests used:
[1] = test system: whitefly (Trialeurodes vaporariorum); assay: Insecticide test, whitefly on bean plants; format: in vivo; conditions: 336 h, after 14 days
Source text: Bean plants which were heavily populated with whitefly (Trialeurodes vaporariorum) were sprayed to the beginning of the run-off point using aqueous suspensions of concentrates of wettable powders (250 ppm active substance content). After the plants had been placed in the greenhouse, they were subjected to microscope checks after 14 days, resulting in a 100% mortality in the case of each preparation containing the active substances of Example Nos. 4, 5, 10, 19, 20, 24, 27, 28, 130 and 139.

[2] = test system: two-spotted spider mite (Tetranychus urticae); assay: Acaricide test, two-spotted spider mite on bean plants; format: in vivo; conditions: 168 h, after 7 days, read-out: mortality rate of the mites
Source text: Bean plants (Phaseolus v.) which were heavily infested with the two-spotted spider mite (Tetranychus urticae, full population) were sprayed with the aqueous dilution of a concentrate of wettable powder, containing 250 ppm of the active substance in question. The mortality of the mites was checked after 7 days.

[3] = test system: eggs of the large milkweed bug (Oncopeltus fasciatus); assay: Ovicidal activity, eggs of large milkweed bug on paper filter disks; format: in vivo; conditions: 168 h, after 7 days
Experimental: Paper filter disks onto which eggs of the large milkweed bug (Oncopeltus fasciatus) have been placed are treated with in each case 0.5 ml of aqueous dilution of the test formulation. After the coating has dried on, the Petri dish is sealed, and the inside is kept at maximum atmospheric humidity. After the dishes have been kept at room temperature, the ovicidal activity was determined after 7 days.

Plasmopara viticola = assay: Fungicide test, Plasmopara viticola on grapevine seedlings; format: in vivo; conditions: 500 mg of active substance/l spray mixture; incubation 7 days
Experimental: Approximately 6 weeks after sowing, grapevine seedlings "Riesling/Ehrenfelder" were treated to runoff point using aqueous suspensions of the compounds according to the invention. After the spray coating had dried on, the plants were inoculated with a zoosporangia suspension of Plasmopara viticola and the dripping wet plants were placed for 4 to 5 hours into a controlled-environment cabinet at 23° C. at a relative atmospheric humidity of 80-90%.
After an incubation time of 7 days in the greenhouse, the plants were returned overnight into the controlled-environment cabinet to stimulate sporulation of the fungus. The disease was then evaluated. The disease level was expressed in % of diseased leaf area in comparison with the untreated, 100% infected control plants.

Botrytis cinerea = assay: Fungicide test, Botrytis cinerea on broad beans; format: in vivo; conditions: 500 mg of active substance/l spray mixture; approximately 1 week after inoculation
Experimental: Broad beans cv. "Herz Freya" or "[…]" approximately 14 days old, were treated to runoff point with aqueous suspensions of the compounds according to the invention. After the spray coating had dried off, the plants were inoculated with a spore suspension (1.5 million spores/ml) of Botrytis cinerea. The plants were grown on in a controlled-environment cabinet at 20°-22° C. under relative atmospheric humidity of approximately 99%. […] The experiments were evaluated approximately 1 week after inoculation. The disease level of the plants was scored in percent relative to untreated, 100% infected control plants.

[4] = test system: tobacco hornworm (Manduca sexta); assay: Oral application to larvae (L4) of tobacco hornworm; format: in vivo
Experimental: Active substances which were dissolved in acetone were applied orally to butterfly larvae (L4) of tobacco hornworm (Manduca sexta). After active substance of Example No. 3 or 8 (2×10^-4 g of a.i./animal) had been applied, a mortality of 100% was found after 48 hours.

Pyrenophora teres = assay: Fungicide test, Pyrenophora teres on barley plants; format: in vivo; conditions: 500 mg of active substance/l spray mixture; approximately 1 week after inoculation
Experimental: Barley plants cv. "Igri" in the 2-leaf stage were wetted to runoff point with an aqueous suspension of the compounds according to the invention. […] The infected plants were subsequently grown on in the greenhouse at 25° C. at a relative atmospheric humidity of 80%. The disease level was evaluated approximately 1 week after inoculation. The disease level was determined in % of diseased leaf area in comparison with untreated, 100% infected control plants.

Erysiphe graminis = assay: Fungicide test, Erysiphe graminis (powdery mildew) on barley plants; format: in vivo, Erysiphe graminis f. sp. hordei; conditions: 500 mg of active substance/l spray mixture; applied 24 hours after inoculation; 10 days
Experimental: Barley plants in the 3-leaf stage were inoculated with large amounts of conidia of powdery mildew of barley (Erysiphe graminis f. sp. hordei) and placed in a greenhouse at 20° C. and a relative atmospheric humidity of 90 to 95%. 24 hours after the inoculation, the plants were wetted uniformly with the abovementioned compounds. After an incubation time of 10 days, the plants were examined for the occurrence of powdery mildew of barley. The disease level was determined in % of diseased leaf area based on untreated, 100% infected control plants.

[5] = test system: eggs of Diabrotica undecimpunctata; assay: Activity against freshly deposited eggs of southern corn rootworm; format: in vivo; conditions: 120 h, after 5 days
Experimental: Freshly deposited eggs of Diabrotica undecimpunctata (southern corn rootworm) were sprayed, on paper filters, with in each case 2 ml of an aqueous suspension of wettable powders (active substance content 250 ppm) and were subsequently observed at room temperature. After 5 days, the eggs were examined for mortality.

Leptosphaeria nodorum = assay: Fungicide test, Leptosphaeria nodorum on wheat plants; format: in vivo; conditions: 500 mg of active substance/l spray mixture
Experimental: Wheat plants cv. "Jubilar" in the 2-leaf stage were wetted to runoff point using aqueous suspensions of the preparations according to the invention. […] The plants were grown on in the greenhouse at a relative atmospheric humidity of approximately 90% until the symptoms became visible. The disease level was determined in % of diseased leaf area in comparison with the untreated, 100% infected control plants.

[6] = test system: tropical cattle ticks (Boophilus microplus); assay: In vitro test on tropical cattle ticks, inhibition of oviposition; format: in vivo; conditions: Rhipicephalus microplus, 336 h, immersion five minutes, two weeks after treatment
Experimental: In vitro test on tropical cattle ticks (Boophilus microplus) The following experimental set-up allowed the effectiveness of the compounds according to the invention against ticks to be confirmed.
To produce a suitable preparation of active substance, the active substances were dissolved to 10% strength (w/v) in a mixture composed of dimethylformamide (85 g), nonylphenolpolyglycol ether (3 g) and ethoxylated castor oil (7 g), and the resulting emulsion concentrates were diluted with water to a test concentration of 500 ppm.
Batches of ten females of the tropical tick Boophilus microplus which had sucked themselves full were immersed for five minutes in these active substance dilutions. The ticks were subsequently dried on paper filters and then attached, with their backs, to an adhesive film-in order to deposit eggs. The ticks were kept in an incubator at 28° C. at an atmospheric humidity of 90%.
As a control, the female ticks were immersed just in water. Two weeks after the treatment, the inhibition of oviposition was used to determine the effectiveness. 100% means that no ticks have deposited eggs, 0 that all ticks have deposited eggs.

Phytophthora infestans = format: in vivo; conditions: 500 mg of active substance/l spray mixture; approximately 1 week after inoculation
Spodoptera littoralis = assay: Insecticide test, Egyptian cotton leafworm larvae (L3); format: in vivo; conditions: 120 h, after 5 days
Experimental: Spodoptera littoralis (Egyptian cotton leafworm) larvae in the L3 stage were introduced into Petri dishes filled with nutrient medium, and these dishes together with the larvae were sprayed with 2 ml of an aqueous suspension of wettable powder containing 250 ppm (Corresponding to 6000 l of water/ha). After the spray coating had dried on, the Petri dishes were sealed and stored for 5 days at 21° C. After 5 days, the compound of Example No. 28 had caused a mortality of the Spodoptera larvae of 100%.

CCCC[C@H]1CC[C@@H](Oc2ccnc3ccccc23)CC1 [Compound 10]
mortality at 250 ppm [1]: 100%
mortality at 250 ppm [2]: 100%
mortality at 250 ppm [3]: 100%

Cc1ccc2c(NC3CCC(C(C)(C)CC(C)(C)C)CC3)ccnc2n1 (stereo not drawn) [Compound 215]
mortality at 250 ppm [3]: 100%

c1ccc([C@H]2CC[C@@H](Nc3ccnc4ccccc34)CC2)cc1 [Compound 25, 4-(4-Phenylcyclohexylamino)quinoline]
disease suppression (Plasmopara viticola): suppress disease completely
disease suppression (Botrytis cinerea): suppress disease completely

c1ccc([C@H]2CC[C@H](Nc3ccnc4ccccc34)CC2)cc1 [Compound 26, 4-(4-Phenylcyclohexylamino)quinoline]
disease suppression (Plasmopara viticola): suppress disease completely
disease suppression (Botrytis cinerea): suppress disease completely

CC(C)(C)[C@H]1CC[C@@H](Nc2ccnc3cc(C(F)(F)F)ccc23)CC1 [Compound 8]
mortality at 0.2 mg ([4]; oral, 2×10^-4 g of a.i./animal, after 48 hours): 100%

CC(C)(C)CC(C)(C)[C@H]1CC[C@@H](Oc2ccnc3cccnc23)CC1 [Compound 133]
mortality at 250 ppm [2]: 100%

Cc1cc(N[C@H]2CC[C@@H](C(C)(C)CC(C)(C)C)CC2)c2ccccc2n1 [Compound 80]
disease suppression (Botrytis cinerea): suppress disease completely

c1ccc([C@H]2CC[C@@H](Oc3ccnc4cccnc34)CC2)cc1 [Compound 139]
disease suppression (Pyrenophora teres): suppress disease completely
disease suppression (Erysiphe graminis): suppress disease completely
mortality at 250 ppm [1]: 100%
mortality at 250 ppm [2]: 100%
mortality at 250 ppm [3]: 100%
mortality at 250 ppm [5]: 100%

CCC(C)(C)[C@H]1CC[C@@H](Nc2ccnc3cccnc23)CC1 [Compound 130]
disease suppression (Leptosphaeria nodorum): suppress disease completely
disease suppression (Plasmopara viticola): suppress disease completely
mortality at 250 ppm [1]: 100%
mortality at 250 ppm [2]: 100%
mortality at 250 ppm [3]: 100%
mortality at 250 ppm [5]: 100%

CCC(C)(C)[C@H]1CC[C@@H](Oc2ccnc3ccccc23)CC1 [Compound 14]
inhibition at 500 ppm [6]: 100%

c1ccc([C@H]2CC[C@@H](Nc3ccnc4ncccc34)CC2)cc1 [Compound 208]
mortality at 250 ppm [3]: 100%

CC(C)(C)[C@H]1CC[C@@H](Nc2ccnc3c(F)cccc23)CC1 [Compound 5]
mortality at 250 ppm [1]: 100%

CC(C)(C)C1CCC(Nc2ccnc3ccccc23)CC1 (stereo not drawn) [Compound 3]
disease suppression (Plasmopara viticola): suppress disease completely
disease suppression (Botrytis cinerea): suppress disease completely
mortality at 0.2 mg ([4]; po, 48 h): 100%
mortality at 250 ppm [3]: 100%
mortality at 250 ppm [5]: 100%

c1ccc([C@H]2CC[C@@H](Nc3ncnc4ncccc34)CC2)cc1 [Compound 280]
mortality at 250 ppm [3]: 100%

CCC(C)(C)[C@H]1CC[C@@H](Nc2ncnc3cccnc23)CC1 [Compound 232]
disease suppression (Plasmopara viticola): suppress disease completely
mortality at 250 ppm [5]: 100%

CC(C)(C)CC(C)(C)C1CCC(Nc2ccnc3ccccc23)CC1 (stereo not drawn) [Compound 19]
disease suppression (Plasmopara viticola): suppress disease completely
disease suppression (Botrytis cinerea): suppress disease completely
mortality at 250 ppm [1]: 100%
mortality at 250 ppm [2]: 100%
mortality at 250 ppm [3]: 100%

c1ccc2c(NC3CCC(C4CCCCC4)CC3)ccnc2c1 (stereo not drawn) [Compound 23]
disease suppression (Botrytis cinerea): suppress disease completely
mortality at 250 ppm [2]: 100%
mortality at 250 ppm [3]: 100%

CC(C)(C)CC(C)(C)[C@H]1CC[C@@H](Oc2ccnc3ccccc23)CC1 [Compound 20]
inhibition at 500 ppm [6]: 100%
mortality at 250 ppm [1]: 100%
mortality at 250 ppm [2]: 100%

c1ccc([C@H]2CC[C@@H](Oc3ccnc4ccccc34)CC2)cc1 [Compound 27]
inhibition at 500 ppm [6]: 100%
mortality at 250 ppm [1]: 100%
mortality at 250 ppm [2]: 100%
mortality at 250 ppm [3]: 100%
mortality at 250 ppm [5]: 100%

CCOc1ccc([C@H]2CC[C@@H](Nc3ccnc4ccccc34)CC2)cc1 [Compound 45]
disease suppression (Phytophthora infestans): suppress disease completely
disease suppression (Botrytis cinerea): suppress disease completely
mortality at 250 ppm [3]: 100%

CC(C)(C)C1CCC(Oc2ccnc3ccccc23)CC1 (stereo not drawn) [Compound 4]
mortality at 250 ppm [1]: 100%
mortality at 250 ppm [2]: 100%
mortality at 250 ppm [5]: 100%

c1ccc2c(O[C@H]3CC[C@@H](C4CCCCC4)CC3)ccnc2c1 [Compound 24, 4-(4-Cyclohexylcyclohexyloxy)quinoline]
mortality at 250 ppm [1]: 100%
mortality at 250 ppm [2]: 100%

CC(C)(C)[C@H]1CC[C@@H](Nc2ccnc3cc(Cl)ccc23)CC1 [Compound 7]
disease suppression (Plasmopara viticola): suppress disease completely
disease suppression (Botrytis cinerea): suppress disease completely

Fc1cccc2c(N[C@H]3CC[C@@H](c4ccccc4)CC3)ccnc12 [Compound 28]
mortality at 250 ppm (Spodoptera littoralis): 100%
inhibition at 500 ppm [6]: 100%
mortality at 250 ppm [1]: 100%
